US10413505B1, “Pharmaceutical compositions and methods of using the same” (priority 2017, dated 2019)
Read-outs that look alike come from different tables or passages of the source.

Experiments:
[1] = Example 2 urinary pharmacokinetics, normal renal function vs severe renal impairment; conditions: for CL renal: human, 160 mg; for 0 to 32 hour urinary recovery (geometric mean) / 0 to 32 hour urinary recovery (mean) / 0 to 32 hour urinary recovery (median): metabolites as cocaine equivalents
Method: For the urine analysis of cocaine, BE, and EME, individual urinary recoveries for each analyte were determined over each collection interval as the product of the urine concentration times the urine volume. The total recoveries were determined as the sum of the recoveries over all the intervals. Total urinary recoveries were also expressed as the percentage of the administered dose, after correction for the molecular weight of each analyte. The renal clearances of cocaine, BE, and EME were determined as the urinary recovery (in μg) divided by the plasma AUC over the same time interval (the longest period for which both plasma and urine measurements were available).
Urine was collected prior to dosing and from 0-2, 2-4, 4-8, 8-12, 12-24, and 24-32 hours after the beginning of dose application. […] Testing methods used were consistent with those used by inVentiv Health Clinical Lab, Inc., Miami, Fla., U.S.A. Urinary pharmacokinetic parameters included total urinary recovery (μg), urinary recovery as a percentage of dose, and CLr.

[2] = Example 1 urinary pharmacokinetics after intranasal administration; format: in vivo, human; conditions: healthy subjects, single intranasal 160 mg cocaine HCl; for CL renal / dose excreted: human, urine, 160 mg; for CL renal: inhaled or intranasal; for dose excreted: other: intranasal
Method: (§1) A single dose of a pharmaceutical composition was administered to both nostrils using cottonoid pledgets. […] Each pledget absorbed approximately 1 mL of pharmaceutical composition (i.e., 40 mg cocaine hydrochloride). Two soaked pledgets were placed into each nasal cavity of the subject and against the anterior septum for 20 minutes; thus, a total dose of 160 mg of cocaine hydrochloride was administered.
Urine samples were collected pre-dose and at the following intervals from the start of intranasal application of the pharmaceutical composition: 0-2 hours, 2-4 hours, 4-8 hours, and 8-12 hours. […] A 25-μL aliquot of each urine sample was processed by liquid-liquid extraction.
Urinary pharmacokinetic parameters were analyzed using noncompartmental methods.

[3] = Example 1 single-dose plasma pharmacokinetics after intranasal administration; format: in vivo, human; conditions: single intranasal 160 mg cocaine HCl; for AUC(0-inf) / AUC(0-t) / Cmax / MRT / Tmax / Vd/F / half-life: human, inhaled or intranasal, 160 mg
Method: Single-dose plasma and urinary pharmacokinetics of the pharmaceutical composition following intranasal administration was characterized in this study. This was a single-dose study in 30 healthy volunteers. The objective of the study was to examine the systemic pharmacokinetics of the pharmaceutical composition following acute, topical intranasal administration.
as §1
Blood samples were collected pre-dose (30 minutes before pledget insertion), and 7.5, 15, 20, 30, 45, 60, 75, 90, and 105 minutes and 2, 3, 4, 6, 8, 10, and 12 hours from the start of application of the pharmaceutical composition.
The effect of gender on Cmax, Tmax, AUClast, AUCinf, and t1/2 was determined. The effects of age, body weight, and BMI on AUClast were determined.

[4] = normal renal function, single intranasal 160 mg cocaine HCl
[5] = severe renal impairment, single intranasal 160 mg cocaine HCl
[6] = urine 0-12 h, metabolites as cocaine equivalents

COC(=O)[C@H]1[C@@H](OC(=O)c2ccccc2)C[C@@H]2CC[C@H]1N2C [Cocaine, cocaine, reference compound]
CL renal ([1]; both, urine, inhaled or intranasal, Renal Clearance, CLr (geometric mean), normal renal function, single intranasal 160 mg cocaine HCl): 26.8 mL/min | CL renal ([1]; both, urine, inhaled or intranasal, Renal Clearance, CLr (geometric mean), severe renal impairment, single intranasal 160 mg cocaine HCl): 17.3 mL/min | CL renal ([1]; both, urine, other: intranasal (drug-soaked pledgets in the nasal cavity), renal clearance, range observed, renally impaired patients, 32 hours from administration): 8.8 to 31.9 mL/min | CL renal ([1]; urine and plasma, inhaled or intranasal, CLr (Geometric Least Squares Mean, ANOVA), Impaired renal function (severe), single intranasal 160 mg cocaine HCl): 17.3 mL/min | CL renal ([1]; urine and plasma, inhaled or intranasal, CLr (Geometric Least Squares Mean, ANOVA), Normal renal function, single intranasal 160 mg cocaine HCl): 26.8 mL/min | CL renal ([1]; urine and plasma, inhaled or intranasal, Renal Clearance (geometric mean), normal renal function, single intranasal 160 mg cocaine HCl): 26.9 mL/min | CL renal ([1]; urine and plasma, inhaled or intranasal, Renal Clearance (geometric mean), severe renal impairment, single intranasal 160 mg cocaine HCl): 17.3 mL/min | CL renal ([1]; urine and plasma, inhaled or intranasal, Renal Clearance (mean), normal renal function, single intranasal 160 mg cocaine HCl): 33.3 mL/min | CL renal ([1]; urine and plasma, inhaled or intranasal, Renal Clearance (mean), severe renal impairment, single intranasal 160 mg cocaine HCl): 20.4 mL/min | CL renal ([1]; urine and plasma, inhaled or intranasal, Renal Clearance (median), normal renal function, single intranasal 160 mg cocaine HCl): 33.6 mL/min | CL renal ([1]; urine and plasma, inhaled or intranasal, Renal Clearance (median), severe renal impairment, single intranasal 160 mg cocaine HCl): 19.6 mL/min | CL renal ([1]; urine and plasma, inhaled or intranasal, Renal Clearance, CLr (mean), normal renal function, single intranasal 160 mg cocaine HCl): 33.3 mL/min | CL renal ([1]; urine and plasma, inhaled or intranasal, Renal Clearance, CLr (mean), severe renal impairment, single intranasal 160 mg cocaine HCl): 20.3 mL/min | CL renal ([1]; urine and plasma, inhaled or intranasal, Renal Clearance, CLr (median), normal renal function, single intranasal 160 mg cocaine HCl): 33.7 mL/min | CL renal ([1]; urine and plasma, inhaled or intranasal, Renal Clearance, CLr (median), severe renal impairment, single intranasal 160 mg cocaine HCl): 19.7 mL/min | 0-32 h Urinary Recovery (geometric mean) [1, 4]: 122.8 µg | 0-32 h Urinary Recovery (mean) [1, 4]: 164.2 µg | 0-32 h Urinary Recovery (median) [1, 4]: 126.6 µg | 0 to 32 hour urinary recovery (geometric mean) [1, 4]: 0.086 % of administered dose | 0 to 32 hour urinary recovery (mean) [1, 4]: 0.115 % of administered dose | 0 to 32 hour urinary recovery (median) [1, 4]: 0.089 % of administered dose | CLr, percent lower (reduction) than in normal subjects ([1]; severe renal impairment vs normal renal function): approximately 36% | CLr Ratio Impaired/Normal ([1]; severe renal impairment vs normal renal function, ANOVA): 64.33% | 0-32 h Urinary Recovery (geometric mean) [1, 5]: 102.7 µg | 0-32 h Urinary Recovery (mean) [1, 5]: 138.5 µg | 0-32 h Urinary Recovery (median) [1, 5]: 89.8 µg | 0 to 32 hour urinary recovery (geometric mean) [1, 5]: 0.072 % of administered dose | 0 to 32 hour urinary recovery (mean) [1, 5]: 0.097 % of administered dose | 0 to 32 hour urinary recovery (median) [1, 5]: 0.063 % of administered dose | Total Urinary Recovery (Geometric mean) [2, 6]: 96.5 µg | Total Urinary Recovery (Mean) [2, 6]: 117 µg | Total Urinary Recovery (Median) [2, 6]: 114 µg | CL renal ([2]; read-out: Renal Clearance (Geometric mean) (converted)): 37.2 mL/min | CL renal ([2]; read-out: Renal Clearance (Mean) (converted)): 47.2 mL/min | CL renal ([2]; read-out: Renal Clearance (Median) (converted)): 42.7 mL/min | dose excreted ([2]; urine 0-12 h, metabolites as cocaine equivalents, read-out: Urinary Recovery (Geometric mean)): 0.0603% | dose excreted ([2]; urine 0-12 h, metabolites as cocaine equivalents, read-out: Urinary Recovery (Mean)): 0.0729% | dose excreted ([2]; urine 0-12 h, metabolites as cocaine equivalents, read-out: Urinary Recovery (Median)): 0.0714% | AUC(0-inf) ([3]; both sexes, plasma, healthy subjects, plasma, read-out: AUCinf (Geometric Mean)): 50.3 ng·h/mL | AUC(0-inf) ([3]; both sexes, plasma, healthy subjects, plasma, read-out: AUCinf (Mean)): 54.9 ng·h/mL | AUC(0-t) ([3]; both sexes, plasma, healthy subjects, plasma, read-out: AUClast (Geometric Mean)): 34.2 ng·h/mL | AUC(0-t) ([3]; both sexes, plasma, healthy subjects, plasma, read-out: AUClast (Mean)): 38.4 ng·h/mL | Cmax ([3]; both sexes, plasma, healthy subjects, plasma, read-out: Cmax (Geometric Mean)): 32.8 ng/mL | MRT ([3]; both sexes, plasma, healthy subjects, plasma, read-out: MRT (Geometric Mean)): 90 min | MRT ([3]; both sexes, plasma, healthy subjects, plasma, read-out: MRT (Mean)): 93.6 min | Tmax ([3]; both sexes, plasma, healthy subjects, plasma, read-out: Tmax (Geometric Mean)): 22.4 min | Vd/F ([3]; both sexes, plasma, healthy subjects, plasma, read-out: Vd/F (Geometric Mean)): 3680 L | Vd/F ([3]; both sexes, plasma, healthy subjects, plasma, read-out: Vd/F (Mean)): 3880 L | AUC(0-inf) ([3]; female, plasma, Female healthy subjects, plasma, read-out: AUCinf (Geometric mean)): 53.9 ng·h/mL | AUC(0-inf) ([3]; female, plasma, Female healthy subjects, plasma, read-out: AUCinf (Mean)): 60.6 ng·h/mL | AUC(0-inf) ([3]; female, plasma, Female healthy subjects, plasma, read-out: AUCinf (Median)): 57.6 ng·h/mL | AUC(0-t) ([3]; female, plasma, Female healthy subjects, plasma, read-out: AUClast (Geometric mean)): 39.4 ng·h/mL | AUC(0-t) ([3]; female, plasma, Female healthy subjects, plasma, read-out: AUClast (Mean)): 44.4 ng·h/mL | AUC(0-t) ([3]; female, plasma, Female healthy subjects, plasma, read-out: AUClast (Median)): 32.4 ng·h/mL | Cmax ([3]; female, plasma, Female healthy subjects, plasma, read-out: Cmax (Geometric mean)): 35.5 ng/mL | Cmax ([3]; female, plasma, Female healthy subjects, plasma, read-out: Cmax (Mean)): 39 ng/mL | Cmax ([3]; female, plasma, Female healthy subjects, plasma, read-out: Cmax (Median)): 37 ng/mL | Tmax ([3]; female, plasma, Female healthy subjects, plasma, read-out: Tmax (Geometric mean)): 23.1 min | Tmax ([3]; female, plasma, Female healthy subjects, plasma, read-out: Tmax (Mean)): 26.9 min | Tmax ([3]; female, plasma, Female healthy subjects, plasma, read-out: Tmax (Median)): 20 min | half-life ([3]; female, plasma, Female healthy subjects, plasma, read-out: t1/2 (Geometric mean) (converted)): 56.5 min | half-life ([3]; female, plasma, Female healthy subjects, plasma, read-out: t1/2 (Mean) (converted)): 60.6 min | half-life ([3]; female, plasma, Female healthy subjects, plasma, read-out: t1/2 (Median) (converted)): 60.6 min | fraction of the 160 mg dose absorbed intact during the 20-minute exposure period (rough estimate, CL/F vs intravenous CL) ([3]; healthy subjects): ~4% | % EXTRAP (Geometric Mean) ([3]; healthy subjects, plasma): 17.7% | % EXTRAP (Mean) ([3]; healthy subjects, plasma): 18.7% | CL/F (Mean) ([3]; healthy subjects, plasma): 3,096 L/h | Clast (Geometric mean) ([3]; healthy subjects, plasma): 7.05 ng/mL | Clast (Mean) ([3]; healthy subjects, plasma): 7.18 ng/mL | Tlast (Geometric mean) ([3]; healthy subjects, plasma): 2.31 h | Tlast (Mean) ([3]; healthy subjects, plasma): 2.40 h | Tmax (Mean) ([3]; healthy subjects, plasma): 26 min | t1/2 (Geometric mean) ([3]; healthy subjects, plasma): 58.5 min | Cmax ([3]; plasma, healthy subjects, plasma, read-out: Cmax (Mean)): 37 ± 17.3 ng/mL | Cmax ([3]; plasma, healthy subjects, plasma, read-out: Cmax (range across subjects)): 7.93 to 70.3 ng/mL | Tmax ([3]; plasma, healthy subjects, plasma, read-out: Tmax (Mean)): 25.8 ± 20.4 min | half-life ([3]; plasma, healthy subjects, plasma, read-out: t1/2 (Mean) (converted)): 62.4 ± 21 min | AUC(0-inf) ([3]; male, plasma, Male healthy subjects, plasma, read-out: AUCinf (Geometric mean)): 45.7 ng·h/mL | AUC(0-inf) ([3]; male, plasma, Male healthy subjects, plasma, read-out: AUCinf (Mean)): 47.2 ng·h/mL | AUC(0-inf) ([3]; male, plasma, Male healthy subjects, plasma, read-out: AUCinf (Median)): 46.2 ng·h/mL | AUC(0-t) ([3]; male, plasma, Male healthy subjects, plasma, read-out: AUClast (Geometric mean)): 29.1 ng·h/mL | AUC(0-t) ([3]; male, plasma, Male healthy subjects, plasma, read-out: AUClast (Mean)): 31.5 ng·h/mL | AUC(0-t) ([3]; male, plasma, Male healthy subjects, plasma, read-out: AUClast (Median)): 28.5 ng·h/mL | Cmax ([3]; male, plasma, Male healthy subjects, plasma, read-out: Cmax (Geometric mean)): 30 ng/mL | Cmax ([3]; male, plasma, Male healthy subjects, plasma, read-out: Cmax (Mean)): 34.6 ng/mL | Cmax ([3]; male, plasma, Male healthy subjects, plasma, read-out: Cmax (Median)): 31.6 ng/mL | Tmax ([3]; male, plasma, Male healthy subjects, plasma, read-out: Tmax (Geometric mean)): 21.7 min | Tmax ([3]; male, plasma, Male healthy subjects, plasma, read-out: Tmax (Mean)): 25 min | Tmax ([3]; male, plasma, Male healthy subjects, plasma, read-out: Tmax (Median)): 20 min | half-life ([3]; male, plasma, Male healthy subjects, plasma, read-out: t1/2 (Geometric mean) (converted)): 60.6 min | half-life ([3]; male, plasma, Male healthy subjects, plasma, read-out: t1/2 (Mean) (converted)): 63.6 min | half-life ([3]; male, plasma, Male healthy subjects, plasma, read-out: t1/2 (Median) (converted)): 58 min
